Results on 1 molecule are retold here after PMC7340268, “Structural definition of polyspecific compensatory ligand recognition by P-glycoprotein” (IUCrJ, 2020).

Assay [1] relates to Pgp C952A control and the five aromatic replacement mutants (Y303A, Y306A, F724A, F728A, F979A). In words: Effect of BDE-100 on basal and verapamil-stimulated ATPase activity. Type of assay: biochemical, mouse. Particulars: BDE-100 at 50, 75 and 100 µM. The procedure: Figure 3 The effect of BDE-100 on the verapamil-stimulated ATPase activity of the six Pgp mutations. […]. The level of BDE-100 inhibition of the verapamil-stimulated ATPase EC50 for each mutant is also shown. P values were determined from a two-tailed unequal variance test: ****, p ≤ 0.0001; ***, p ≤0.0001–0.001; *, p ≤0.05–0.01. […]
(Figure 4) were chosen to yield a more finely sampled dose response for this figure. BDE-100 alone had little effect on Pgp ATPase activity. Inhibitory effects of BDE-100 at 50 µM, 75 µM and 100 µM on the Verapamil-EC50 specific to each mutant were determined. All measurements were determined with seven independent measurements (n=7).
(1 picture or pasted object on this page, not shown here)

The target of a further assay is T1, Pgp C952A (Mus musculus, UniProt P21447, C952A).
T1 construct: 6xHis (C); made in house; host or cells: Pichia pastoris
T1 sequence (P21447 whole entry C952A): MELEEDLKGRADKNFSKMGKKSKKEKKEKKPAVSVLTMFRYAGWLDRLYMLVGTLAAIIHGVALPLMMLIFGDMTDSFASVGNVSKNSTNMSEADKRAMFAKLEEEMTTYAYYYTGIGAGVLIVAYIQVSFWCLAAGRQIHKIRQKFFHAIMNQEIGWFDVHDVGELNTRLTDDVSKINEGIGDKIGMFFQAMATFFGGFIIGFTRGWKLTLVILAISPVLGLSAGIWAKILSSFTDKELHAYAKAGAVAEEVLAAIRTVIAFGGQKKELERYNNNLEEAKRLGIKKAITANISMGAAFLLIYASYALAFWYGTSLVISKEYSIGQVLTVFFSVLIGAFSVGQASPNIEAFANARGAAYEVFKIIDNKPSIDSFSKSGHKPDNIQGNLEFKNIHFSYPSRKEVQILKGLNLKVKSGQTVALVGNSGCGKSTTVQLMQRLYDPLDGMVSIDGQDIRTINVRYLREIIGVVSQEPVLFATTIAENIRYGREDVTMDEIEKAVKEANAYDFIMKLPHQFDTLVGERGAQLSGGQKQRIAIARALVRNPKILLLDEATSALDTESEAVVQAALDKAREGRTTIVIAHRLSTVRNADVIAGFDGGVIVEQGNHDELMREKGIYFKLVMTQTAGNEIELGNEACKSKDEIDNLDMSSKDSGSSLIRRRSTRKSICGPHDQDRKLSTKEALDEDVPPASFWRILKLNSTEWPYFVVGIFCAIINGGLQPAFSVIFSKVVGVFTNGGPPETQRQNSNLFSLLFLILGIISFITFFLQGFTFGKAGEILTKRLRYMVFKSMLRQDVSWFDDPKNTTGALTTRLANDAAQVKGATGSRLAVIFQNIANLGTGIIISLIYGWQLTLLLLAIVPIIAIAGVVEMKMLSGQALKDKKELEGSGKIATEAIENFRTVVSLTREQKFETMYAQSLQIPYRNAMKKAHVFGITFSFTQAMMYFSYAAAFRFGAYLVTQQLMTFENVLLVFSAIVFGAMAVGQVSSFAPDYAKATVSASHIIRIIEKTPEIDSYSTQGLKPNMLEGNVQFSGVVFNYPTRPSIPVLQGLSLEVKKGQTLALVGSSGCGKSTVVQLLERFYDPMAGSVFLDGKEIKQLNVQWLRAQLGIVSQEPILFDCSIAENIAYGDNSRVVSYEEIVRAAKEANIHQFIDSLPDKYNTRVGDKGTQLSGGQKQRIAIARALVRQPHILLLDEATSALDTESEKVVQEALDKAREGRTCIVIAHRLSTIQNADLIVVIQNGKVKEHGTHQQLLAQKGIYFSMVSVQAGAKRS
In words: Co-crystal structure, occupancy refinement of BDE-100. Type of assay: binding. As to the method: (§1) To reproduce the binding of BDE-100 to Pgp and maintain crystal isomorphism, we utilized the reductive-methylation protocol of Ward et al. (2013[▸]) with some modifications. Fresh dimethylamine–borane (20 mM; Sigma–Aldrich) and 16% formaldehyde (40 mM; Thermo Scientific) were added to 1–3 mg mouse Pgp. The mixture was incubated for 2 h at 4°C and further dimethylamine–borane and formaldehyde were added after 2 h. After incubation for 16 h at 4°C, the reaction was quenched with cold glycine on ice for 2 h and flushed with SEC buffer (10 mM Tris–HCl pH 7.5, 75 mM NaCl, 0.0375% DDM, 0.04% sodium cholate, 0.1 mM TCEP). The eluted protein was concentrated to 2–3 mg ml^−1 and incubated with 0.5 mM BDE-100 (AccuStandard) dissolved in DMSO in the dark for 16 h at 4°C. The precipitate was centrifuged and the extracted sample was […] 1:10 in SEC buffer to give a final concentration of 10–13 mg ml^−1. Crystallization was set up using 3 µl sitting drops in 24-well Cryschem plates (Hampton Research) with a 1:1 ratio of protein solution and reservoir solution [0.1 M HEPES, 50 mM lithium sulfate, 10 mM EDTA, 26–28.5%(w/v) polyethylene glycol (PEG) 600 pH 7.9–8.4]. Crystals could be visualized after ∼3 days at 4°C and reached full size in ∼4 weeks.
(§2) X-ray diffraction data were collected at 100 K on beamline 23-ID-D at the Advanced Photon Source (APS). MAD scans were obtained from Pgp–BDE-100 co-crystals near the Br K edge to optimize for the strongest anomalous signal at the beginning of each data-collection session and whenever data were collected from a new mutant. The data were processed, integrated and scaled with HKL-2000 (Otwinowski & Minor, 1997[▸]). The Pgp structures were solved by molecular replacement using the previously solved BDE-100 complex structure (PDB entry 4xwk; Nicklisch et al., 2016[▸]) without the BDE-100 (Table 1 ▸) using an initial rigid-body refinement of the two pseudosymmetric halves of the protein. Subsequent rounds included the full molecule with chains linked including ligands. Phenix.elbow was used to produce ligand description dictionaries (Adams et al., 2010[▸]) and the placement of BDE-100 was verified by anomalous scattering of the Br atoms and OMIT density (see Fig. 1 ▸ for top views, Supplementary Fig. S1 for side views and Supplementary Fig. S2 for ligand F o − F c OMIT maps) calculated via CNS (Brünger et al., 1998[▸]). The structures agreed with the previously solved structure as our control mutant (C952A) contained BDE-100 in the same position based on experimental data. All models were subjected to rigid-body, xyz, group B-factor and individual B-factor refinement using phenix.refine (Afonine et al., 2010[▸]) and the model geometry was monitored using MolProbity (Chen et al., 2010[▸]) in the absence of the ligand. The BDE-100 atoms were then modeled and the structures were subjected to the same refinement steps including occupancy refinement using an occupancy of 0.5 as the starting point. […] We conclude there is a sufficient data-to-parameter ratio to refine both B factors and occupancy for the BDE-100 ligand in PDB entry 4xwk as well as in all of our structures. Our own refinement of PDB entry 4xwk yielded a ligand occupancy of 0.66 and our control mutant C952A agreed very well, with a refined occupancy of 0.67 (for a full list, see Table 2 ▸). The refined occupancy values for ligands also agreed very well with the intensities of their respective anomalous difference Fourier electron densities. Data statistics and parameters supporting the quality of the structures are presented in Table 1 ▸ and Supplementary Table S1. Figures were prepared and r.m.s.d.s were calculated in PyMOL (version 1.8; Schrödinger). […]

In the next assay the target is T2, Pgp C952A/F724A (Mus musculus, UniProt P21447, C952A/F724A).
T2 construct: 6xHis (C); made in house; host or cells: Pichia pastoris
The description is as above. Type of assay: binding. As to the method:
as §1, §2

The next assay concerns the target T3, Pgp C952A/F728A (Mus musculus, UniProt P21447, C952A/F728A).
T3 construct: 6xHis (C); made in house; host or cells: Pichia pastoris
The description is as above. It counts as binding. As to the method: as §1, §2

The target of a further assay is T4, Pgp C952A/F979A (Mus musculus, UniProt P21447, C952A/F979A).
T4 construct: 6xHis (C); made in house; host or cells: Pichia pastoris
The assay is described as above. It counts as binding. The procedure: as §1, §2

A further assay deals with T5, Pgp C952A/Y303A (Mus musculus, UniProt P21447, C952A/Y303A).
T5 construct: 6xHis (C); made in house; host or cells: Pichia pastoris
T5 sequence (P21447 whole entry Y303A/C952A): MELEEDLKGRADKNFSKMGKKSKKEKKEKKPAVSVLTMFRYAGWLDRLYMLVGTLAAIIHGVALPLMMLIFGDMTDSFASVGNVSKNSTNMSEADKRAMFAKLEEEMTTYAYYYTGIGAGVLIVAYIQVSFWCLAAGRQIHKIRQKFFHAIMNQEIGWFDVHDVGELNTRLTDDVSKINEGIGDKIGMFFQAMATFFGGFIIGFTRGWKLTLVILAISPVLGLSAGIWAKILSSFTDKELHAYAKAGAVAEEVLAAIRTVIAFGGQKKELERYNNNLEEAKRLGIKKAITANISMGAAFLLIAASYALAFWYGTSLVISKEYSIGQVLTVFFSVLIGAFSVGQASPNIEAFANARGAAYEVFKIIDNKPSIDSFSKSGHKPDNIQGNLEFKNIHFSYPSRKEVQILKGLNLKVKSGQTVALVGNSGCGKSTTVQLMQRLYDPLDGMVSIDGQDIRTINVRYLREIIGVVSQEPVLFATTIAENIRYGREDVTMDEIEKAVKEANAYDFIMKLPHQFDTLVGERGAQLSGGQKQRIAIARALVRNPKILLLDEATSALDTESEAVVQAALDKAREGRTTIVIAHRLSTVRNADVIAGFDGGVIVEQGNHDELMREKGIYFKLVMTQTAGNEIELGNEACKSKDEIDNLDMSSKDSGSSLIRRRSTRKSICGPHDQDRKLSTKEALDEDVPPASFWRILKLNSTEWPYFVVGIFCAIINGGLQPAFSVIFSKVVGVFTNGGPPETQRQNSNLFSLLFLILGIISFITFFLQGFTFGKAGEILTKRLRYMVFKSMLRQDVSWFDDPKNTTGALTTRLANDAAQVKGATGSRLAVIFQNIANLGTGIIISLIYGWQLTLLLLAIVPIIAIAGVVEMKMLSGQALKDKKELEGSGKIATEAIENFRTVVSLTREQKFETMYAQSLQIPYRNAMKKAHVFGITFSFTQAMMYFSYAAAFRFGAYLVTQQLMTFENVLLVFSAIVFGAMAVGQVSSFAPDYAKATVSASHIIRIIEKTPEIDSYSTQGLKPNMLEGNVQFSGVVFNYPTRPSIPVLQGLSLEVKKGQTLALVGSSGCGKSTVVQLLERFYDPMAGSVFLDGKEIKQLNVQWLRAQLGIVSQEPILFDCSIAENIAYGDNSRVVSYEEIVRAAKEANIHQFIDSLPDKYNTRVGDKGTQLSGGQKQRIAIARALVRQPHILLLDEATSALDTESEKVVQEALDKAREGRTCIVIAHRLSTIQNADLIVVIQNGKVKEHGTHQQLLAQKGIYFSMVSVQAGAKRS
The description is as above. Type of assay: binding. The procedure: as §1, §2

The next assay deals with T6, Pgp C952A/Y306A (Mus musculus, UniProt P21447, C952A/Y306A).
T6 construct: 6xHis (C); made in house; host or cells: Pichia pastoris
T6 sequence (P21447 whole entry Y306A/C952A): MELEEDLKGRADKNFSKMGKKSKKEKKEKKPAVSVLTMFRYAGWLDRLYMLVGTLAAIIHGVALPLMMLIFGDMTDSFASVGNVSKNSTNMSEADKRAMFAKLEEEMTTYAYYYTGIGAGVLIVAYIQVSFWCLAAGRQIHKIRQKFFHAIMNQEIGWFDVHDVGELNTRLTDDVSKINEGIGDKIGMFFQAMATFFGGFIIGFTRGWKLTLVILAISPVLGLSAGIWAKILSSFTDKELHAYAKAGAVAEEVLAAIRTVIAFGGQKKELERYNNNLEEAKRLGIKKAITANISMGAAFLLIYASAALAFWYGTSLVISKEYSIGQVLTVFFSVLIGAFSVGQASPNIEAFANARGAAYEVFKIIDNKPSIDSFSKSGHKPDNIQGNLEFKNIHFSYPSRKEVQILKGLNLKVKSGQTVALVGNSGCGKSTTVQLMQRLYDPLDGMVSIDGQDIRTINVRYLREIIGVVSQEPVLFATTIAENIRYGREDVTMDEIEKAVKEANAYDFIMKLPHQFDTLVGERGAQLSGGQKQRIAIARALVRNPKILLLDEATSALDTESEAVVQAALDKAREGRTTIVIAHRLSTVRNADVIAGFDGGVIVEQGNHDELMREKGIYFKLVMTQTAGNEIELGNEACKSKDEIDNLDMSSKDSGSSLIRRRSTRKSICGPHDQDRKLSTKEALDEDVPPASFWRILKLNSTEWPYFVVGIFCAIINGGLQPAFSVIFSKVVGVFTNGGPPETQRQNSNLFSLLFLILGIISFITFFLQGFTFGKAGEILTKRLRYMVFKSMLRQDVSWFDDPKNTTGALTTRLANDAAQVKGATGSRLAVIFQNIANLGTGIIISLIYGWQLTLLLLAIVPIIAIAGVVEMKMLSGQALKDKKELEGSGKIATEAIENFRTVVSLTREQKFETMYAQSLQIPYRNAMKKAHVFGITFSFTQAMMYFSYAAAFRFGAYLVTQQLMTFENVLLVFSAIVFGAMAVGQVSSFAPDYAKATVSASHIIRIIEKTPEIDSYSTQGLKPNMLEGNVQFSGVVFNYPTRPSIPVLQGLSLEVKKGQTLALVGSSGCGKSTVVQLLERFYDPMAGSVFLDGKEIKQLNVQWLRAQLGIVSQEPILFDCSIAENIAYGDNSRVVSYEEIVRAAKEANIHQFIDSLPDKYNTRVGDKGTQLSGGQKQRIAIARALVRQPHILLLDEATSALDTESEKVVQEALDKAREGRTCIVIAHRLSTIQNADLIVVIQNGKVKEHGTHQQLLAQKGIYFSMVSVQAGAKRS
The assay is described as above. It counts as binding. As to the method:
as §1, §2

A further assay deals with Pgp (PDB entry 4xwk) (Mus musculus, UniProt P21447). In words: Authors' own occupancy refinement of the published Pgp-BDE-100 structure. It counts as binding. As to conditions: own refinement using the deposited structure factors. From the text:
X-ray diffraction data were collected at 100 K on beamline 23-ID-D at the Advanced Photon Source (APS). MAD scans were obtained from Pgp–BDE-100 co-crystals near the Br K edge to optimize for the strongest anomalous signal at the beginning of each data-collection session and whenever data were collected from a new mutant. The data were processed, integrated and scaled with HKL-2000 (Otwinowski & Minor, 1997[▸]). The Pgp structures were solved by molecular replacement using the previously solved BDE-100 complex structure (PDB entry 4xwk; Nicklisch et al., 2016[▸]) without the BDE-100 (Table 1 ▸) using an initial rigid-body refinement of the two pseudosymmetric halves of the protein. […] Phenix.elbow was used to produce ligand description dictionaries (Adams et al., 2010[▸]) and the placement of BDE-100 was verified by anomalous scattering of the Br atoms and OMIT density (see Fig. 1 ▸ for top views, Supplementary Fig. S1 for side views and Supplementary Fig. S2 for ligand F o − F c OMIT maps) calculated via CNS (Brünger et al., 1998[▸]). […] All models were subjected to rigid-body, xyz, group B-factor and individual B-factor refinement using phenix.refine (Afonine et al., 2010[▸]) and the model geometry was monitored using MolProbity (Chen et al., 2010[▸]) in the absence of the ligand. […] Figures were prepared and r.m.s.d.s were calculated in PyMOL (version 1.8; Schrödinger). […]

A further assay deals with wild-type Pgp. The arrangement: method as in Nicklisch et al., 2016. As to conditions: ref Nicklisch et al., 2016, cited from earlier work.

Entries after “also recorded” stand apart in the source; their conditions may differ. Marks after values point to notes of the source that are not given here.

Sequence of Pgp (PDB entry 4xwk) (P21447 whole entry): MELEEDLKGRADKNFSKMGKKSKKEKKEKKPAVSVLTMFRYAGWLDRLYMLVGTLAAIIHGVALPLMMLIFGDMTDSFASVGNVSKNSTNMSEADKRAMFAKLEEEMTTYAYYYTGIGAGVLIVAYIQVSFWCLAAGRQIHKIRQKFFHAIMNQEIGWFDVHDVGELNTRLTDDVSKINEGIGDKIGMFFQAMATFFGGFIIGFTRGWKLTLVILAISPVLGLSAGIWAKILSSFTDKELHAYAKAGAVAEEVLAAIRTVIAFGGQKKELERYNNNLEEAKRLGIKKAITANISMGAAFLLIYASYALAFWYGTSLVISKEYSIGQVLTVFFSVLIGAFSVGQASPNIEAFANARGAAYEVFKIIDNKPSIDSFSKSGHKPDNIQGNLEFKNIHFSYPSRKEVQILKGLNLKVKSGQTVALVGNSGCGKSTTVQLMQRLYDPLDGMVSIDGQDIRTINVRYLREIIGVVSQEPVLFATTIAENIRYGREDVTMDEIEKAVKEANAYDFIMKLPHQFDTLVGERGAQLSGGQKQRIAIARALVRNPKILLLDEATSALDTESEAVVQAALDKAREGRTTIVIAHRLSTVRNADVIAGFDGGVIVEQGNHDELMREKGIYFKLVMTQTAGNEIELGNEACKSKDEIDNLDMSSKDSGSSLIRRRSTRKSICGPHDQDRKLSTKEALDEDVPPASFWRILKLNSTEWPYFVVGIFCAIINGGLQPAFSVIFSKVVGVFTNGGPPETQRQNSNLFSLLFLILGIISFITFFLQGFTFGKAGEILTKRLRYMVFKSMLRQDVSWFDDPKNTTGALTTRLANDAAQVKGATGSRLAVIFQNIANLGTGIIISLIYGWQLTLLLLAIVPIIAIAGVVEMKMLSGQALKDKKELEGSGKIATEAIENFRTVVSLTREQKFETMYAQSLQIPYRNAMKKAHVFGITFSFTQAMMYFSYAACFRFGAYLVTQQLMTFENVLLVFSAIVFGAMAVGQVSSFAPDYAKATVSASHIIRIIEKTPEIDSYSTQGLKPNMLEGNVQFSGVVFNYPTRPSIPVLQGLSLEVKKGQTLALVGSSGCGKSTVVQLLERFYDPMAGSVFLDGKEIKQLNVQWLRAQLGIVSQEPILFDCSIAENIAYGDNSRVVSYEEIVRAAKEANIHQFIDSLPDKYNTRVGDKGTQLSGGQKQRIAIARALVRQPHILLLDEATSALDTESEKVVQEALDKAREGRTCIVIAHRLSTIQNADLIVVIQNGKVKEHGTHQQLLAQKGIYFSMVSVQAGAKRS

For the molecule `Brc1ccc(Oc2c(Br)cc(Br)cc2Br)c(Br)c1` [BDE-100], the “Effect of BDE-100 alone on basal ATPase activity” value in [1] (absence of verapamil, C952A control and five mutants) was “did not increase the basal ATPase activity; also recorded: little effect”; in the assay with wild-type Pgp (wild-type Pgp), “did not increase the basal ATPase activity”. Also, the “Effect of BDE-100 on verapamil-stimulated ATPase activity” value in assay [1] (at the verapamil EC50 determined for each mutant) is on record as “inhibited; also recorded: significant inhibitory effect”. Further, the “Occupancy of BDE-100, site 1” value on Pgp C952A (C952A) is on record as 67%; on Pgp C952A/F979A, 65%; on Pgp C952A/Y303A, 64%; on Pgp C952A/Y306A, 68%; on Pgp (PDB entry 4xwk) it was 66%. Also, the “Refined ligand occupancy, site 1” value on Pgp C952A (C952A control, as fraction) is listed as 0.67; on Pgp (PDB entry 4xwk) (as fraction) it was 0.66. Further, the “Occupancy of BDE-100, site 3” value on Pgp C952A/F724A is recorded as 35%. For the same molecule, the “Occupancy of BDE-100, site 1 (designated site 1A)” value at Pgp C952A/F728A is recorded as 53 ^† %. Moreover, the “Occupancy of BDE-100, site 2” value amounted to 48% on Pgp C952A/F728A, 56% on Pgp C952A/Y303A and 49% on Pgp C952A/Y306A. Also, in the assay on wild-type Pgp, the “Inhibition of verapamil-stimulated ATPase activity” value is listed as “potent inhibitor”.
